# In US8623901B2, “Compounds for the treatment of CNS disorders” (Boehringer Ingelheim International GmbH, priority 2009, dated 2014):
# Experiments:
# [1] = biological target: PDE1C (Homo sapiens (Human), UniProt Q14123); assay: PDE1C assay (SPA, analogue to the PDE9A2 assay); assay type: biochemical; details: ratio PDE1C IC50 / PDE9A2 IC50
# From the text: The reaction can be stopped by applying the same inhibitor than the one that is outlined above (1-(2-Chlorophenyl)-6-[(2R)-3,3,3-trifluoro-2-methyl-propyl]-1,5-dihydro-4H-pyrazolo[3,4-d]pyrimidine-4-one).
# (§1) IC50 can be calculated with GraphPadPrism or other suited software setting the positive control as 100 and the negative control as 0. For calculation of IC50 dilutions of the test compounds (substrates) are to be selected and tested following the aforementioned protocol.
# [2] = biological target: human PDE9A2 (Homo sapiens (Human), UniProt O76083); assay: PDE9A2 enzymatic activity assay (scintillation proximity assay); assay type: biochemical
# Sequence of human PDE9A2 (O76083 other isoform, or with tags, fused parts or gaps): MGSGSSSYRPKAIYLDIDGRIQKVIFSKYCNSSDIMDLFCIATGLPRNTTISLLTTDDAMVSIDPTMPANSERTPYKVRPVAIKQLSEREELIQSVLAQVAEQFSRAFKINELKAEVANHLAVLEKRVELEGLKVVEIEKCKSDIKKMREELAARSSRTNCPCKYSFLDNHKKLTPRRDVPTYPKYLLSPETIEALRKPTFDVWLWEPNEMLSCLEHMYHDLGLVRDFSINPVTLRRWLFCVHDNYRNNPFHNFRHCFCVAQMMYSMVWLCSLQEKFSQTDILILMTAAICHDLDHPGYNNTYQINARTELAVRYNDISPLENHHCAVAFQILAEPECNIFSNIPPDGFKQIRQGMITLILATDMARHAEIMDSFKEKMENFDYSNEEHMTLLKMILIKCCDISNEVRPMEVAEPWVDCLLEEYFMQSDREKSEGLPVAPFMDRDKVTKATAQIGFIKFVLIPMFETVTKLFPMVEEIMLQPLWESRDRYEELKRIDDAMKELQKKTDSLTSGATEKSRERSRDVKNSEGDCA
# Experimental: As enzyme source, lysate (PBS with 1% Triton X-100 supplemented with protease inhibitors, cell debris removed by centrifugation at 13.000 rpm for 30 min) of SF 9 cell expressing the human PDE9A2 was used. The total protein amount included in the assay varied upon infection and production efficacy of the SF9 cells and lay in the range of 0.1-100 ng.
# The assays were run in 384-well format. The test reagents as well as the enzyme and the substrate were diluted in assay buffer. The assay buffer contained 50 mM Tris, 8.3 mM MgCl2, 1.7 mM EGTA, 0.1% BSA, 0.05% Tween 20; the pH of assay buffer was adjusted to 7.5.
# The activity of the positive control (minus the negative control=background) is set to 100% and activity in the presence of test compound is expressed relative to these 100%.
# as §1
# [3] = biological target: human PDE9A (Homo sapiens (Human), UniProt O76083); details: concentrations of up to 100 micromolar (μM); cited from earlier work
# Sequence of human PDE9A (O76083 whole entry): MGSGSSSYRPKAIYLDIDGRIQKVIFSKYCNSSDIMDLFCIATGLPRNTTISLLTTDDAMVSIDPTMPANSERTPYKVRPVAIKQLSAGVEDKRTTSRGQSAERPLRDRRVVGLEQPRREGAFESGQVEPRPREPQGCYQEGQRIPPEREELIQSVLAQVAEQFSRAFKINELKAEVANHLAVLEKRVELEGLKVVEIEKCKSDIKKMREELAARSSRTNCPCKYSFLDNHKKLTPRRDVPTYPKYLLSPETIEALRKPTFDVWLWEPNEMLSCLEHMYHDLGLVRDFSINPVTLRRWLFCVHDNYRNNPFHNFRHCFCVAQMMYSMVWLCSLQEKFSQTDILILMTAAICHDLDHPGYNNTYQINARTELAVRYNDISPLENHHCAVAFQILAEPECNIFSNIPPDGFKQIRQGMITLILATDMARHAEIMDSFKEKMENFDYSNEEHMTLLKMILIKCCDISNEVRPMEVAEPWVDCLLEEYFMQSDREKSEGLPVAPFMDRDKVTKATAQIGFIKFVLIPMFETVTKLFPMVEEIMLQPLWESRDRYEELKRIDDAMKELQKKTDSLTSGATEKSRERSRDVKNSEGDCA
# [4] = biological target: Murine PDE9A (Mus musculus (Mouse), UniProt O70628); details: cited from earlier work
# Sequence of Murine PDE9A (O70628 whole entry): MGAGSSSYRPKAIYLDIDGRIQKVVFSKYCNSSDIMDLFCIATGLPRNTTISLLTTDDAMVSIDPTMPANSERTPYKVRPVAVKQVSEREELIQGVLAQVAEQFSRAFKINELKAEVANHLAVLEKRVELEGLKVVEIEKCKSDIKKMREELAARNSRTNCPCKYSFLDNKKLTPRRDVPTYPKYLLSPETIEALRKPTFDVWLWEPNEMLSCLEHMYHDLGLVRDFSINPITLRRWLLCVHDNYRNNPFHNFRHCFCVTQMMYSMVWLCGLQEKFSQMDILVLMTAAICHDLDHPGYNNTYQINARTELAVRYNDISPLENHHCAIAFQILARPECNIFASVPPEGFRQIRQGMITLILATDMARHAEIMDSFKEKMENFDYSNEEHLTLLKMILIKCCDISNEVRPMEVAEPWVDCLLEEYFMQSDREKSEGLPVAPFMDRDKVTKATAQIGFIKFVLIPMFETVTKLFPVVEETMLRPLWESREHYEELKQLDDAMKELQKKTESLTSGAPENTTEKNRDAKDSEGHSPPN
Compound,inhibition on the isolated enzyme [3],other results
CC(C)(C)c1cccc(-c2ccccc2Cc2nc3c(cnn3C3CCOCC3)c(=O)[nH]2)n1 [Example 259],,"S: selectivity values [= (IC50 for PDE1C inhibition)/(IC50 for PDE9A2 inhibition)] [1]: 942; inhibition at 10 µM ([2]; PDE9A2, 10 microM test compound, read-out: I % (at 10 microM): inhibition at 10 micromolar concentration): 102%; IC50 ([2]; human PDE9A2, cGMP 20 nanomolar, read-out: IC50 values for PDE9A2 inhibition): 0.003 µM"
CC(C)Cn1c(=O)n(C)c(=O)c2[nH]cnc21 [IBMX],no inhibition,inhibition of murine PDE9A ([4]; concentrations below 200 micromolar): not inhibited
CC(=O)Nc1ccc(-c2c[nH]c(=O)cn2)cc1 [SKF94120],no inhibition,
OCCN(CCO)c1nc(N2CCCCC2)c2nc(N(CCO)CCO)nc(N3CCCCC3)c2n1 [dipyridamole],no inhibition,
COc1ccc(C2CNC(=O)C2)cc1OC1CCCC1 (stereo not shown) [rolipram],no inhibition,
CCOC(=O)C1=C[C@]2(CC)CCCN3CCc4c(n1c1ccccc41)[C@@H]32 [vinpocetine],no inhibition,
CCCOc1ccccc1-c1nc2nn[nH]c2c(=O)[nH]1 [zaprinast],,IC50 ([4]; murine PDE9A): 29 µM
